Values of other authors in patent US6150513A, “Polyketide synthase enzymes and recombinant DNA constructs therefor” (Kosan Biosciences, Inc., priority 1998, dated 2000).
Where two headings read alike, the source gives them in different places.

Columns and labels:
[1] = system: splenocyte proliferation; settings: Luengo et al., 1995
[2] = system: FKBP
[3] = system: nigral-striatal dopamine neurons; settings: administration of FKBP ligand
[4] = system: sensory neurons; settings: compared with FK-506, FK-520 and rapamycin; Steiner et al., 1997

In the case of `COC(=O)N[C@H]1C[C@@H]2CC[C@@H](C)[C@@](O)(O2)C(=O)C(=O)N2CCCC[C@H]2C(=O)O[C@H]([C@H](C)C[C@@H]2CC[C@@H](O)[C@H](OC)C2)CC(=O)[C@H](C)/C=C(\C)[C@@H](O)[C@@H](OC)C(=O)[C@H](C)C[C@H](C)/C=C/C=C/C=C/1C` [compound 1], the “activity in the splenocyte proliferation assay” value [1] is listed as “complete loss of activity” and the “reduction in binding to FKBP” value ([2]; relative to rapamycin, Luengo et al., 1995) is listed as 10 fold.
In the case of `CCC(C)(C)C(=O)C(=O)N1CCC[C@H]1C(=O)OCCCc1cccnc1` [GPI-1046], the “effect in primate MPTP model” value [3] is given as “caused brain cells to regenerate and behavioral measures to improve”.
For `CC1(C)COC(=O)CCCCCCOc2cccc(c2)[C@@H](CCc2ccccc2)OC(=O)[C@@H]2CCCCN2C(=O)C1=O` [compound 2], the “binding to FKBP compared with FK-506” value ([2]; in words) is listed as “about as well as FK-506”.
For `CO[C@H]1C[C@@H]2CC[C@@H](C)[C@@](O)(O2)C(=O)C(=O)N2CCCC[C@H]2C(=O)O[C@H]([C@H](C)C[C@@H]2CC[C@@H](O)[C@H](OC)C2)CC(=O)[C@H](C)/C=C(\C)[C@@H](O)[C@@H](OC)C(=O)[C@H](C)C[C@H](C)C2C=CC(/C=C/1C)n1c(=O)n(-c3ccccc3)c(=O)n12` [WAY-124,466], the “promoting neurite outgrowth in sensory neurons” value [4] is listed as “about as effective as FK-506, FK-520, and rapamycin” and the IC50 ([2]; see Ocain et al., 1993, target not given, context FKBP binding, read-out: IC50) is listed as 12.5 nM.
For `COC1CC2CCC(C)C(O)(O2)C(=O)C(=O)N2CCCCC2C(=O)NC(CCc2ccccc2)C(=O)NCC(=O)N(C)CC(=O)OC1C` (stereo not drawn) [compound 3], the “binding to FKBP, poorer than FK-506” value ([2]; relative to FK-506) is listed as “about 20 fold”.
For `CC[C@@H]1/C=C(\C)C(O)[C@H](C)C[C@H](OC)[C@H]2O[C@@](O)(C(=O)C(=O)N3CCCC[C@H]3C(=O)O[C@H](/C(C)=C/[C@@H]3CC[C@@H](O)[C@H](OC)C3)[C@H](C)[C@@H](O)CC1=O)[C@H](C)C[C@@H]2OC` (stereo partly drawn) [L-685,818], the “promoting neurite outgrowth in sensory neurons” value [4] is given as “about as effective as FK-506, FK-520, and rapamycin” and the IC50 ([2]; see Dumont et al., 1992, read-out: ED50 for FKBP binding) is given as 0.7 nM.
